Data on eight compounds can be found in patent US7122570B2, “Tetrahydrocarbazol derivatives as ligands for G-protein-coupled receptors (GPCR)” (Zentaris AG, priority 2001, dated 2006).

One experiment addresses T1, hGnRH-Receptor (Homo sapiens, UniProt P30968).
T1 construct: expressed in transfected cells; host or cells: CHO-3 cells (Schmid et al., J. Biol. Chem. 275 (2000), 9193-9200), membrane preparation
T1 sequence (P30968 1-328): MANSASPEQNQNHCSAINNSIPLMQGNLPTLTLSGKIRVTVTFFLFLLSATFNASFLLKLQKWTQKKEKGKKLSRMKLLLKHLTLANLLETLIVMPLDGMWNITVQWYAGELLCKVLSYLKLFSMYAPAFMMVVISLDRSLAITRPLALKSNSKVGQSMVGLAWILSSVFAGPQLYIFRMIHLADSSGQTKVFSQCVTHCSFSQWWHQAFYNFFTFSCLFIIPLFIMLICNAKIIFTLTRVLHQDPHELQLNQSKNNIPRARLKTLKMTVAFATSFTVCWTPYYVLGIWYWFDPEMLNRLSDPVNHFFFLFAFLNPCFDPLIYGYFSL
Nature of the experiment: GnRH receptor assay: competition binding with 125I-labeled buserelin on cell membranes. The following applies: competition with 125I-buserelin. On the procedure: Buserelin is ordered from Welding (Frankfurt/Main, Germany). The compound is labeled with ^125I by use of the chloramine T-method and Na^125I (4000 Ci/mmol; Amersham-Buchler, Brunswick, Germany). The labeled substance is purified by reverse phase HPLC on a Spherisorb ODS II column (250×4 mm, particle size 3 μm) by elution with 50% acetonitrile/0.15% trifluoroacetic acid at a flow rate of 0.5 ml/minute. The specific activity is 2000 Ci/mmol.
Alpha T3-1 cells (Bilezikjian et al., Mol. Endocrinol 5 (1991), 347–355) are cultivated in DMEM medium (Gibco-BRL, Eggenstein-Leopoldshafen, Germany) with penicillin (100 I.U./ml), streptomycin (0.1 mg/ml) and glutamine (0.01 mol/l) and 10% fetal calf serum (FCS; PAA Laboratories, Coelbe, Germany) on plastic tissue culture plates (Nunc, 245×245×20 mm). CHO-3 cells (Schmid et al., J. Biol. Chem. 275 (2000), 9193–9200) are cultivated under identical conditions, apart from the fact that Ham's F12 medium (Gibco-BRL) is used.
Ten confluent cell culture plates are flushed twice with 50 ml of phosphate-buffered salt solution (PBS). The cells are harvested by scraping them off with a rubber scraper in 5 ml of PBS and sedimented by centrifuging in a laboratory centrifuge (Heraeus) at 800 rpm for 10 minutes. The cell pellet is resuspended in 5 ml of 0.25 mol/l of saccharose/0.01 mol/l of triethanolamine, pH 7.4. The cells are lysed by three cycles of freezing in dry ice/ethanol bath and thawing at room temperature. The lysate is centrifuged at 900 rpm for 10 minutes, and the sediment is discarded. The supernatant is centrifuged at 18,000 rpm in a Sorvall SS34 rotor for 30 minutes. The pellet (cell membranes) is suspended by Potters in 5 ml of assay buffer (0.25 mol/l of saccharose, 0.01 mol/l of triethanolamine, pH 7.5, 1 mg/ml of ovalbumin) and stored in 200 μl of aliquots at −20° C. The determination of protein is carried out according to the Bradford method (Anal. Biochem. 72 (1976), 248–254).
Binding studies for competition curves are performed as triplicates. A test sample contains 60 μl of cell membrane suspension (10 μg of protein for αT3-1 cells or 40 μg of protein for CHO3 cells), 20 μl of ^125I-labeled buserelin (100,000 Ipm per sample for competition curves and between 1,500 and 200,000 Ipm for saturation experiments) and 20 μl of test buffer or test compound solution. The test compounds are dissolved in distilled water or 50% ethanol. Serial dilutions (5×10^−6 mol/l to […]) are produced in test buffer. The unspecific binding is determined in the presence of excess unlabeled buserelin (10^−6 mol/1). The test samples are incubated for 30 minutes at room temperature. Bonded and free ligands are separated by filtration (Whatman GF/C-filter, 2.5 cm diameter) with use of an Amicon 10x collecting device and washed twice with 5 ml of 0.02 mol/l of Tris/HCl, pH 7.4. The filters are moistened with 0.3% polyethylenimine (Serva; Heidelberg, Germany) for 30 minutes to reduce the unspecific binding. The radioactivity that was held up by the filter is determined in a 5-channel gamma-counter (Wallac-LKB 1470 Wizard).
In the table below, the IC50 values that are obtained for the preferred compounds, as defined above, are indicated.

For another experiment, the target named is T2, GnRH receptor (Homo sapiens, UniProt P30968).
T2 sequence (P30968 1-328): T1 sequence (P30968 1-328)
Nature of the experiment: Ca2+ release, human. The experiment is classed as cell-based. The conditions noted are these: read-out: Ca^2+ Release Human IC50.

The IC50 is the concentration needed to halve the response being measured. As to `CC(C)C(NC(=O)C1(NC(=O)C(Cc2ccccc2)c2ccccc2)CCc2[nH]c3ccccc3c2C1)C(=O)NC(CC(N)=O)C(N)=O` [Compound 18, N-[[(3R)-2,3,4,9-Tetrahydro-3-[(1-oxo-2,3-diphenyl-propyl)amino]-1H-carbaol-3-yl]-carbonyl]-L-valyl-L-aspartamide], the half-inhibitory concentration (IC50) was found to be 0.9 µM at hGnRH-Receptor and 5 µM at GnRH receptor.

For `CC[C@H](C)[C@H](NC(=O)CCc1ccccc1)C(=O)N[C@]1(C(=O)N[C@H](C(=O)N[C@@H](CC(N)=O)C(N)=O)C(C)C)CCc2[nH]c3ccccc3c2C1` [Compound 22, N-[[(3R)-2,3,4,9-Tetrahydro-3-[[(2S,3S)-3-methyl-1-oxo-2-[(1-oxo-3-phenylpropyl)amino]-pentyl]amino]-1H-carbazol-3-yl]carbonyl]-L-valyl-L-aspartamide], the IC50 is 2 µM at hGnRH-Receptor and 1 µM at GnRH receptor.

As for `CC[C@H](C)[C@H](NC(=O)OCc1ccccc1)C(=O)N[C@]1(C(=O)N[C@H](C(=O)Nc2ccc(C(N)=O)cc2)C(C)C)CCc2[nH]c3ccccc3c2C1` [Compound 45, Phenylmethyl [(1S,2S)-1-[[[(3R)-3-[[[(1S)-1-[[[4-(aminocarbonyl)phenyl]amino]carbonyl]-2-methylpropyl]amino]carbonyl]-2,3,4,9-tetrahydro-1H-carbazol-3-yl]amino]carbonyl]-2-methylbutyl]carbamate], the results for the IC50 at hGnRH-Receptor and on GnRH receptor were 0.3 µM and 1 µM, respectively.

For `CC[C@H](C)[C@H](NC(=O)OCc1ccccc1)C(=O)N[C@]1(C(=O)N[C@H](C(N)=O)C(C)C)CCc2[nH]c3ccccc3c2C1` [Compound 58, Phenylmethyl [(1S,2S)-1-[[[(3R)-3-[[[(1S)-1-(aminocarbonyl)-2-methylpropyl]amino]-carbonyl]-2,3,4,9-tetrahydro-1H-carbazol-3-yl]-amino]carbonyl]-2-methylbutyl]carbamate], the IC50 turned out to be 0.3 µM at hGnRH-Receptor and 0.37 µM on GnRH receptor.

In the case of `CC[C@H](C)[C@H](NC(=O)[C@@]1(NC(=O)[C@@H](NC(=O)OCc2ccccc2)[C@@H](C)CC)CCc2[nH]c3ccccc3c2C1)C(N)=O` [Compound 64, Phenylmethyl [(1S,2S)-1-[[[(3R)-3-[[[(1S,2S)-1-(aminocarbonyl)-2-methylbutyl]amino]-carbonyl]-2,3,4,9-tetrahydro-1H-carbazol-3-yl]-amino]carbonyl]-2-methylbutyl]carbamate], the IC50 at hGnRH-Receptor was 1.7 µM; at GnRH receptor, 1.5 µM.

Take `CC(C)[C@H](NC(=O)[C@@]1(NC(=O)Cc2ccc(F)cc2)CCc2[nH]c3ccccc3c2C1)C(N)=O` [Compound 91, (3R)-N-[(1S)-1-(Aminocarbonyl)-2-methyl-propyl]-3-[[(4-fluorophenyl)acetyl]amino]-2,3,4,9-tetrahydro-1H-carbazole-3-carboxamide]: the IC50 came to 2.4 µM on hGnRH-Receptor and 2 µM at GnRH receptor.

In the case of `CC(C)[C@H](NC(=O)[C@@]1(NC(=O)Cc2cccc(Br)c2)CCc2[nH]c3ccccc3c2C1)C(N)=O` [Compound 96, (3R)-N-[(1S)-1-(Aminocarbonyl)-2-methyl-propyl]-3-[[(3-bromophenyl)acetyl]-amino]-2,3,4,9-tetrahydro-1H-carbazole-3-carboxamide], the IC50 was determined as 4 µM on hGnRH-Receptor and 3 µM at GnRH receptor.

In the case of `CC[C@H](C)[C@H](NC(=O)OCc1ccccc1)C(=O)N[C@]1(C(=O)N[C@H](C(N)=O)C(C)C)CCc2[nH]c3c(OC)cccc3c2C1` [Compound 147a, Phenylmethyl [(1S,2S)-1-[[[(3R)-3-[[[(1S)-1-(aminocarbonyl)-2-methypropyl]amino]-carbonyl]-2,3,4,9-tetrahydro-8-methoxy-1H-carbazol-3-yl]amino]carbonyl]-2-methylbutyl]carbamate], the IC50 at hGnRH-Receptor came to 0.076 µM; at GnRH receptor it was 0.25 µM.
